Data reported in ChEMBL document CHEMBL1143949, “Antiproliferative effects of 6-anilino-5-chloro-1H-benzo[d]imidazole-4,7-dione in vascular smooth muscle cells” (Bioorg Med Chem, 2008).
pIC50: −log10 of the molar value. Calls of active or inactive are those of the source. No cut-off for these calls is given here.

What was measured:
HUVEC = test: Antiproliferative activity against HUVEC; type: functional, cell-based; conditions: Homo sapiens
NIH3T3 = test: Antiproliferative activity against mouse NIH3T3 cells; type: functional, cell-based
[1] = Antiproliferative activity against rat aortic smooth muscle cells; type: functional
[2] = Cell cycle arrest in rat smooth muscle cells assessed as accumulation at G2/M phase at 1 uM after 16 hrs; type: functional, cell-based
[3] = Cell cycle arrest in rat aortic smooth muscle cells assessed as accumulation at G2 phase at 1 uM after 16 hrs; type: functional
[4] = target: Mitogen-activated protein kinase 1 (Rattus norvegicus) (UniProt P63086); test: Activation of ERK2 phosphorylation in rat aortic smooth muscle cells at 1 uM
Rattus norvegicus [5] = species: Rattus norvegicus; test: Induction of apoptosis in rat aortic smooth muscle cells assessed as caspase 3 activation at 1 uM; type: functional
[6] = Cell cycle arrest in rat aortic smooth muscle cells assessed as accumulation at S phase at 1 uM after 16 hrs; type: functional
Rattus norvegicus [7] = species: Rattus norvegicus; test: Effect on PDGF and serum-induced cyclin E expression in rat aortic smooth muscle cells at 1 uM; type: functional
[8] = Cell cycle arrest in rat aortic smooth muscle cells assessed as accumulation at G1 phase at 1 uM after 16 hrs; type: functional
[9] = target: MAP kinase p38 (Homo sapiens) (UniProt O15264+Q15759+Q16539+P53778); test: Activation of p38 phosphorylation in rat aortic smooth muscle cells at 1 uM
Rattus norvegicus [10] = species: Rattus norvegicus; test: Inhibition of PDGF and FBS-induced migration of rat aortic smooth muscle cells by transwell plate assay; type: functional
[11] = target: Mitogen-activated protein kinase 3 (Rattus norvegicus) (UniProt P21708); test: Activation of ERK1 phosphorylation in rat aortic smooth muscle cells at 1 uM
[12] = Cell cycle arrest in rat aortic smooth muscle cells assessed as accumulation at G0/G1 phase at 1 uM after 16 hrs; type: functional

Sequence of Mitogen-activated protein kinase 1 (Rattus norvegicus) (P63086 whole entry): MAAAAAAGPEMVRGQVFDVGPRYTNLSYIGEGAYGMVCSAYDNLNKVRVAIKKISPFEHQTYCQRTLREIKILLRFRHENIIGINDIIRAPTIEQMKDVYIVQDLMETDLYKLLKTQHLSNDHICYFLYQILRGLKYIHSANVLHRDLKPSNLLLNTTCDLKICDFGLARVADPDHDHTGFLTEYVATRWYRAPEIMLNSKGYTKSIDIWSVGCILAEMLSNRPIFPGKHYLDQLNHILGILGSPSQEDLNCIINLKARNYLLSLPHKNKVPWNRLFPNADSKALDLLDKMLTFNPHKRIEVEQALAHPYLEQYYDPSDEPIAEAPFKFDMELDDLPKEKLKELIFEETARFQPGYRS
Sequence of Mitogen-activated protein kinase 3 (Rattus norvegicus) (P21708 whole entry): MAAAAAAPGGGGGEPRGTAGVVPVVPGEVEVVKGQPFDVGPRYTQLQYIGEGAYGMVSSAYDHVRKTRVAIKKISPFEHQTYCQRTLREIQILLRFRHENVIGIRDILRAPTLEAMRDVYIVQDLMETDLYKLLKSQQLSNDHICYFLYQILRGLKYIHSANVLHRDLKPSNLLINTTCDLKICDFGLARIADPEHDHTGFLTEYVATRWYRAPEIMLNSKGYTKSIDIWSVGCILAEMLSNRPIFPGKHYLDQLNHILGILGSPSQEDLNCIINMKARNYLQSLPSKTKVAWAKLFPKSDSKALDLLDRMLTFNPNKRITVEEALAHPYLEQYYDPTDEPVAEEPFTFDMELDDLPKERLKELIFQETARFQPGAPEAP

In the case of `Cc1nc2c([nH]1)C(=O)/C(=N/c1cccc(Cl)c1)C(Cl)=C2O`, the pIC50 (HUVEC) was 6.22, the pIC50 (NIH3T3) was 5.80 and the pIC50 [1] was 6.05.

`Cc1nc2c([nH]1)C(=O)/C(=N/c1cccc(Cl)c1Cl)C(Cl)=C2O` gave a pIC50 (HUVEC) of 6.52, a pIC50 (NIH3T3) of 5.64 and a pIC50 [1] of 6.22.

With `Cc1nc2c([nH]1)C(=O)/C(=N/c1ccc(Cl)cc1)C(Cl)=C2O` the pIC50 (HUVEC) was 6.10, the pIC50 (NIH3T3) was 5.89 and the pIC50 [1] was 5.55.

Compound `Cc1nc2c([nH]1)C(=O)/C(=N/c1ccc(I)cc1)C(Cl)=C2O` has a pIC50 (HUVEC) of 5.70, a pIC50 (NIH3T3) of 6.22 and a pIC50 [1] of 6.00.

For `Cc1nc2c([nH]1)C(=O)/C(=N/c1cccc(Br)c1)C(Cl)=C2O`, the pIC50 (HUVEC) was 6.10, the pIC50 (NIH3T3) was 6.10 and the pIC50 [1] was 6.00.

`Cc1nc2c([nH]1)C(=O)/C(=N/c1ccc(C(F)(F)F)cc1)C(Cl)=C2O` showed a pIC50 (HUVEC) of 6.22, a pIC50 (NIH3T3) of 5.96 and a pIC50 [1] of 6.22.

Work on `Cc1nc2c([nH]1)C(=O)/C(=N/c1ccc(F)cc1)C(Cl)=C2O` yielded a pIC50 (HUVEC) of 6.00, a pIC50 (NIH3T3) of 5.92 and a pIC50 [1] of 5.52.

In the case of `Cc1nc2c([nH]1)C(=O)/C(=N/c1ccccc1)C(Cl)=C2O`, the pIC50 (HUVEC) was 5.92, the Activity [2] was 20.1% and the Activity [3] was “inactive”. For the same compound, the pIC50 (NIH3T3) was 5.28, the Activity [4] was “Active” and the pIC50 [1] was 6.10. For the same compound, the Activity (Rattus norvegicus [5]) was “Active”, the Activity [6] was 23.3% and the Activity (Rattus norvegicus [7]) was “inactive”. For the same compound, the Activity [8] was “inactive”, the Activity [9] was “Active” and the Activity (Rattus norvegicus [10]) was “Active”. The Activity [11] was “Active” and the Activity [12] was 56.4%.

Work on `Cc1nc2c([nH]1)C(=O)/C(=N/c1ccc(F)cc1F)C(Cl)=C2O` yielded a pIC50 (HUVEC) of 6.00, a pIC50 (NIH3T3) of 6.10 and a pIC50 [1] of 5.92.

`Cc1ccc(NC2=C(Cl)C(=O)c3nc(C)[nH]c3C2=O)cc1` showed a pIC50 (HUVEC) of 6.00, a pIC50 (NIH3T3) of 5.80 and a pIC50 [1] of 6.10.

Work on `Cc1nc2c([nH]1)C(=O)/C(=N/c1ccc(F)c(F)c1F)C(Cl)=C2O` yielded a pIC50 (HUVEC) of 6.30, a pIC50 (NIH3T3) of 5.80 and a pIC50 [1] of 6.10.

`Cc1nc2c([nH]1)C(=O)/C(=N/c1ccc(Cl)cc1Cl)C(Cl)=C2O` showed a pIC50 (HUVEC) of 6.30, a pIC50 (NIH3T3) of 5.92 and a pIC50 [1] of 6.10.
